These results are taken from US9463242B2, “Methods for treating prostate cancer” (UNIVERSITY OF ROCHESTER, priority 2011, dated 2016).

Data set [1] has as its system primary cultured human stromal cells (ps-1). Description: TGF-β1 treatment of primary cultured human prostate stromal cells, α-SMA and calponin staining. Format: cell-based. The note with it: different concentrations of TGF-β1 for 1 to 5 days. As for the experimental part: (§1) In FIG. 5a, the expression of TGF-β1 was investigated by IHC staining. The decreased expression of TGF-β1 was found in pes-ARKO epithelium. […] In FIG. 5c, to evaluate the TGF-β1 effect on the differentiation of smooth muscle cells, the primary cultured human prostate stromal cells were treated with different doses of TGF-β1. The expression of smooth muscle α-actin, as shown in FIG. 5c and FIG. 5d, and calponin, as shown in FIG. 5e and FIG. 5f, were detected following treatment for 1 to 5 days.
(§2) The expression of TGF-β1 (FIG. 5a) and TGF-β1 downstream signals was detected by immunohistochemistry (IHC) staining in 24 week old wild type and pes-ARKO prostate epithelium. The TGF-β1 expression and its downstream signals were lower in the epithelium of pes-ARKO mice than those from wild type mice. […] MyoD and Myogenin expression, which are deeply involved in the stromal smooth muscle maturation and differentiation, was also modulated by TGF-β1 stimulation (FIG. 5g).

The subject of data set [2] is MyoD and Myogenin expression in primary cultured human prostate stromal cells. Description: Expression of smooth muscle maturation genes after TGF-β1 treatment. The note with it: 10 ng/ml TGF-β1 treatment. Type of data set: cell-based. As to the method:
as §1, §2

For data set [3] the following is noted: stated as known; cited from earlier work.
In data set [4] the target is T1, AR (Homo sapiens, UniProt P10275).
T1 sequence (P10275 1-920): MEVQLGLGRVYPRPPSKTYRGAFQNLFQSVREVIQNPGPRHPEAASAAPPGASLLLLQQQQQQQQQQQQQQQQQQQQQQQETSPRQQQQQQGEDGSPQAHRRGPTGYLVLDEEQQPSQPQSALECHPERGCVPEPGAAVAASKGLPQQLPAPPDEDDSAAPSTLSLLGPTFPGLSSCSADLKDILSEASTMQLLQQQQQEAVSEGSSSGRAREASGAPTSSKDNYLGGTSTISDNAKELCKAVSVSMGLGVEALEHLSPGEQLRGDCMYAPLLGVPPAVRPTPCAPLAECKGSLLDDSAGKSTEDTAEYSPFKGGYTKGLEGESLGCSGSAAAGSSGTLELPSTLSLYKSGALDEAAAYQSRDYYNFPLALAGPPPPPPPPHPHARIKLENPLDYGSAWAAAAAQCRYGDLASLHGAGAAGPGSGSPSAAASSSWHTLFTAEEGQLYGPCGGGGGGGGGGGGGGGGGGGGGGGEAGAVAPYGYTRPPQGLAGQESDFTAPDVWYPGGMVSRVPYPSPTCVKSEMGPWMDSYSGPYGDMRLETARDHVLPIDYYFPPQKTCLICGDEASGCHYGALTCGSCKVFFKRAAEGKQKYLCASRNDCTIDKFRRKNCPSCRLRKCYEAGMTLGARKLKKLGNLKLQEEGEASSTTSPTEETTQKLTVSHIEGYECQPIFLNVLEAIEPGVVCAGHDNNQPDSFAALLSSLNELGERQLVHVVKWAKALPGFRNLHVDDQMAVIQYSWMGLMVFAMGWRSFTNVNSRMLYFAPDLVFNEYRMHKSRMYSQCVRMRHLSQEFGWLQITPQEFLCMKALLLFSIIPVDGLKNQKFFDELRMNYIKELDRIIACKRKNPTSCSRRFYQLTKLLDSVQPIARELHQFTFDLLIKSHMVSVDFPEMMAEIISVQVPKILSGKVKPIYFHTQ
The note with it: stated as known; cited from earlier work.

Data set [5] concerns PCa S/P cells (LNCaP CD133+). Nature of the data set: MTT growth assay of prostate cancer S/P cells treated with inhibitors. Format: cell-based, human. The note with it: for IC50: Homo sapiens, LNCaP; for inhibitory effect on proliferation of the S/P cells: used individually. As to the method:
For an MTT assay, cells were incubated in 12- or 24-well culture plates (10^5-10^3 cells/well) and cultured. At 2, 4, and 6 days, 3-(4,5-dimethylthiazol-2-yl)-2,5-diphenyltetrazolium bromide (MTT; 0.5 mg/mL; Sigma) was added. After 2 hours of reaction, absorbances at 570 nm were measured. For soft agar colony formation assay, cell suspension (1×10^4 cells/well in 6 well culture plates) of mixture of 1.5% agarose (Cambrex Bio Science Rockland, Ill.) and 2× medium (2 ml) was overlaid onto the solidified mixture of agarose base (final agarose concentration will be 0.75%). Two mL of normal medium containing various concentrations of DHT was added on top of the solidified agarose cell layer. All conditions were performed in triplicate. The plates were incubated at 37° C. in a humidified incubator for 21 days. The colonies developed were visualized by staining with 1% crystal violet. The colonies larger than 1 mm in diameter were counted. For sphere formation assay, a single cell suspension (1×10^3, in 50 μl medium) was mixed with cold Matrigel 50 μl (kept on ice) and the mixture was placed along the rim of the 24 well with minimum triplicate experiments. The culture plates were placed in a 37° C. incubator for 10 min to let the mixture solidify and 500 μl medium was then added into the well. Cells were grown in 5% RPMI (for human PCa S/P cells) and epithelial basal medium (PrEBM) (Lonza) supplemented with growth supplement (Lonza) (for mouse cells) with addition of various concentrations of DHT (1 or 10 nM). Spheres numbers were counted after 7 to 14 days under Olympus light microscope and size differences were also examined.
The effect of combined use of these molecules to block self-renewal/proliferation of the S/P cells was tested. […] The effect of a combinations of two drugs selected among three drugs, LY294002 (inhibitor of Akt pathway), γ-TT, and 5-AZA was tested. […] The test results of the combination therapies using soft agar (FIG. 19C) and sphere formation assays (FIG. 19D) confirmed the MTT results. One method of two drug combination therapy was selected based on these three growth assays. This combination is the use of γ-TT and 5-AZA. From all the in vitro tests including an LD test, a minimum dose of these drugs that kills S/P cells was determined. This strategy was used for an in vivo study. When tumors developed the mice were castrated and ASC-J9 was injected, Two or three combinations of the drugs that target S/P population cells were administered. A tumor development curve indicated the recurrence of castration resistant tumors.

Data set [6] relates to AR expression in LNCaP CD133+ cells. Nature of the data set: Induction of AR expression in LNCaP CD133+ cells. Format: cell-based, human.
Data set [7] deals with LNCaP cells. Description: CD133+ population after continuous Casodex treatment, LNCaP. Type of data set: cell-based, human. The note with it: Casodex for 5 wks continuously. As for the experimental part: (§3) In order to investigate whether S/P cell numbers increase after ADT/castration, LNCaP cells were treated with anti-androgen, Casodex, to mimic castration conditions in vitro. […] Similar experiments were performed with C4-2 and LAPC-4 cell lines.

In data set [8] the test system is C4-2 cells. Description: CD133+ population after Casodex treatment, C4-2. The note with it: C4-2, Casodex treatment. Type of data set: cell-based, human. As for the experimental part: as §3

Entries after “also recorded” stand apart in the source; their conditions may differ. Where two headings read alike, the source gives them in different places.

As to “TGF-β1: TGF-β1 protein used to treat primary cultured human prostate stromal cells”, in data set [1], the “number of mature stromal smooth muscle cells (α-SMA and calponin staining)” value was “significantly dependent on the higher concentration and longer duration”. Moreover, the “MyoD and Myogenin expression” value in data set [2] is recorded as “modulated”.
Take `COc1ccc(/C=C/C(=O)/C=C(O)/C=C/c2ccc(OC)c(OC)c2)cc1OC` [ASC-J9]: the toxicity entry in data set [3] is on record as “without toxicity”. In data set [4], the AR degrading activity entry was “AR degrading activity”.
For `O=c1cc(N2CCOCC2)oc2c(-c3ccccc3)cccc12` [LY294002], the IC50 in data set [5] (LY294002 + γ-TT + 5-AZA together, S/P cells, MTT, read-out: IC50 of the individual compound when three compounds were used together) is < 1000 nM; in data set [5] (compound used alone, S/P cells, MTT, read-out: IC50 of the individual compound), 2500 to 5000 nM.
Take `Nc1ncn([C@H]2C[C@H](O)[C@@H](CO)O2)c(=O)n1` [5-AZA, 5-aza-2′-deoxycytidine]: in data set [6], the AR expression result is reported as “Induction of AR expression”. Besides, the IC50 in data set [5] (read-out: IC50 of the individual compound) was in the range of 2500 to 5000 nM. Further, the “inhibitory effect on proliferation of the S/P cells” value in data set [5] was “inhibits proliferation”.
Turning to `CC(O)(CS(=O)(=O)c1ccc(F)cc1)C(=O)Nc1ccc(C#N)c(C(F)(F)F)c1` (stereo not drawn) [Casodex], the “CD133+ population cells” value in data set [7] was “significantly increased; also recorded: increase”; in data set [8], “not as significant as in LNCaP cells”.
In the case of `CC(C)=CCC/C(C)=C/CC/C(C)=C/CC[C@]1(C)CCc2cc(O)c(C)c(C)c2O1` [γ-TT, γ-tocotrienol], the “inhibitory effect on proliferation of the S/P cells” value in data set [5] is “inhibitory effect”.
